Measurements published in patent publication EP4635958A1, “PYRIMIDINE-CONTAINING POLYCYCLIC DERIVATIVE INHIBITOR, AND PREPARATION METHOD THEREFOR AND USE THEREOF” (Shanghai Hansoh Biomedical Co., Ltd., priority 2022, dated 2024).
Like-named read-outs stand apart in the source and are kept apart here.

Tests used:
GP2D = test: Inhibition of proliferation of KRAS G12D mutant tumor cell line GP2D (CellTiter-Glo); conditions: read-out: GP2D IC50
[1] = Pharmacokinetic determination in rats (IV and PO, plasma, LCMS/MS); assay type: in vivo, SD rats; conditions: male SD rats; for F: PO 30 mg/kg vs IV 1 mg/kg; for AUC(0-inf): read-out: AUCo-∞; for half-life: read-out: T1/2 (converted)
Method: SD rats were used as test animals to study the pharmacokinetic behavior of the example compounds in rats (plasma) after oral administration.
The example compounds of the present invention, made in house.
3 SD rats per group, male. Shanghai Jiesijie Experimental Animal Co., Ltd., animal production license number (SCXK (Shanghai) 2013-0006 N0.311620400001794).
Formulation of a drug for oral administration: 10% Captisol in 50 mM citrate buffer pH 5.0.
(§1) Formulation of 50 mM citric acid: 4.8 g of citric acid was weighed into a 1000 ml glass bottle, ultrapure water was added to 300 ml, and the mixture was magnetically stirred until completely dissolved, additional ultrapure water was then added to 500 ml to formulate 50 mM citric acid.
(§2) Formulation of a solution containing 50 mM citric acid (10% Captisol, PH = 5): 50 g of Captisol powder was weighed and added to a 1000 ml glass bottle, 300 ml of 50 mM citric acid was added, and the mixture was magnetically stirred until completely dissolved, then additional citric acid was added to 500 ml, and the PH was adjusted to 5 using 10 M NaOH.
The example compounds were weighed and dissolved in the solution and the mixture was shaken well and subjected to ultrasound treatment for 15 min to obtain a colorless clear solution with a concentration of 3 mg/mL.
(§3) Formulation of a drug for intravenous administration: 5%DMSO+10%Solutol HS15+85%PBS.
(§4) The example compounds were weighed, and 5% DMSO was added according to the total administration volume; the mixture was vortexed and sonicated for 2 min to ensure complete dissolution; then, 10% Solutol HS15 was added, and the mixture was vortexed and sonicated for 2 min to achieve complete dissolution; finally, 85% PBS was added, and the mixture was vortexed and sonicated for 5 min; the obtained mixture was filtered through a 0.22 um membrane to obtain a colorless, transparent, and clear solution with a concentration of 0.2 mg/mL.
3 SD rats per group, male; After overnight fasting, the animals were administered orally (PO) at a dose of 30 mg/kg with an administration volume of 10 mL/kg.
3 SD rats per group, male; After overnight fasting, the animals were administered intravenously (IV) at a dose of 1 mg/kg with an administration volume of 5 mL/kg.
0.2 mL of blood was collected from the jugular vein before administration and at 0.25 h, 0.5 h, 1.0 h, 2.0 h, 4.0 h, 6.0 h, 8.0 h, and 24.0 h after administration and placed in an EDTA-2K test tube, and the test tube was centrifuged at 6000 rpm for 6 min at 4°C to separate the plasma, which was stored at -20°C. the animals were fed 4 h after administration.
The final determination results obtained by applying the LCMS/MS method are shown in the table below: Table 8: Pharmacokinetic parameters of the compounds administered intravenously in rats

[2] = Pharmacokinetic determination in mice (IV and PO, plasma, LCMS/MS); assay type: in vivo, Balb/c mice; conditions: for half-life: read-out: T1/2 (converted)
From the text: • 1. Study objective: Balb/c mice were used as test animals to study the pharmacokinetic behavior of the compounds in mice (plasma) after oral administration. • 2. Test scheme • 2.1 Test drugs: The example compounds of the present invention, made in house; • 2.2 Test animals: Balb/c mice, male, purchased from Shanghai Jiesijie Experimental Animal Co., Ltd., animal production license number (SCXK (Shanghai) 2013-0006 N0.311620400001794). • 2.3 Drug formulation: Formulation of a drug for oral administration: 10% Captisol in 50 mM citrate buffer pH 5.0.
as §1, §2
The example compounds were weighed and added to a 4 mL glass bottle separately, 2.4 mL of the solution was added and the mixture was subjected to ultrasound treatment for 10 min to obtain a colorless clear solution with a concentration of 3 mg/mL.
as §3, §4
3 Balb/c mice, male; After overnight fasting, the animals were administered orally (PO) at a dose of 30 mg/kg with an administration volume of 10 mL/kg.
3 Balb/C mice, male; After overnight fasting, the animals were administered intravenously (IV) at a dose of 1 mg/kg with an administration volume of 5 mL/kg.
0.04 mL of blood was collected from the orbit before administration and at 0.25 h, 0.5 h, 1 h, 2 h, 4 h, 6 h, 8 h, and 24 h after administration and placed in an EDTA-2K test tube, and the test tube was centrifuged at 6000 rpm for 6 min at 4°C to separate the plasma, which was stored at -20°C; the animals were fed 4 h after administration.
The final determination results obtained by applying the LCMS/MS method are shown in the table below: Table 6: Pharmacokinetic parameters of the compounds administered intravenously in mice

[3] = Plasma stability test, dog plasma; assay type: in vitro ADME; conditions: dog, plasma;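 note: parent compound left in dog plasma quantified by LC-MS with positive electrospray ionization, selected reaction monitoring and an internal standard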
Method: (§5) Liquid chromatography-mass spectrometer, centrifuge, vortexer, pipette, continuous dispenser, 96-well plate, 50% methanol aqueous solution, acetonitrile solution containing internal standard, blank matrix (plasma of rat, dog, or human), Propantheline (propantheline bromide), Mevinolin (lovastatin), and test compound.
(§6) After whole blood was collected from animals or humans, it was placed in a test tube containing an anticoagulant and centrifuged at 3500 rpm for 10 min to collect the upper pale yellow plasma.
(§7) The compound was weighed and the stock solution was formulated with DMSO and the working solution was formulated with 100 mM phosphate buffer.
(§8) • Instrument: API4000 liquid chromatography-mass spectrometer, AB Company, USA; • the ion source was electrospray ionization source (ESI); • drying gas (N2) temperature was 500°C; • electrospray voltage was 5500V; • the detection method was positive ion detection; • the scanning method was selected reaction monitoring (MRM); • the scanning time was 0.1s.

[4] = Plasma stability test, mouse plasma; assay type: in vitro ADME; conditions: mouse, plasma;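 note: test compound quantified by LC-MS using positive-mode electrospray ionization and MRM scanning, with an internal standard added in acetonitrile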
Method: as §5, §6, §7, §8

[5] = Plasma stability test, human plasma; assay type: in vitro ADME; conditions: human, plasma;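 note: test compound incubated in human plasma, quantified by LC-MS/MS (positive-ion ESI, MRM) against an internal standard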
Method: as §5, §6, §7, §8

[6] = rat, in vivo, IV, 1 mg/kg, overnight fasting, plasma
[7] = rat, in vivo, PO, 30 mg/kg, overnight fasting, plasma
[8] = rat, in vivo, PO, 30 mg/kg, overnight fasting, plasma, read-out: Cmax
[9] = rat, in vivo, PO, 30 mg/kg, overnight fasting, plasma, read-out: Tmax
[10] = IV, 1 mg/kg, overnight fasting, plasma
[11] = PO, 30 mg/kg, overnight fasting, plasma

Work on `C#Cc1c(F)ccc2cc(O)cc(-c3nc4c5c(nc(OCC6(CN7CC8CCC7CC8=NOC)CC6)nc5c3F)N3C[C@H]5CC[C@H](N5)[C@H]3[C@H](C)O4)c12` [Example 345] yielded an IC50 (GP2D; Homo sapiens, GP2d, 72 h) of 0.18 nM.

Work on `C#Cc1c(F)ccc2cc(O)cc(-c3nc4c5c(nc(OCC6(CN7C8CCC7CC(=C(F)F)C8)CC6)nc5c3F)N3C[C@H]5CC[C@H](N5)[C@H]3[C@H](C)O4)c12` [Example 134] yielded an IC50 (GP2D; Homo sapiens, GP2d, 72 h) of 1 nM.

In the case of `C#Cc1c(F)ccc2cc(O)cc(-c3nc4c5c(nc(OCC6(CN7CCC(=C(F)F)CC7)CC6)nc5c3F)N3C[C@H]5CC[C@H](N5)[C@H]3[C@H](CC)O4)c12` [Example 124, 4-((5S,5aS,6S,9R)-12-((1-((4-(difluoromethylene)piperidin-1-yl)methyl)cyclopropyl)methoxy)-5-ethyl-1-fluoro-5a,6,7,8,9,10-hexahydro-5H-4-oxa-3,10a,11,13,14-pentaaza-6,9-methylnaphtho[1,8-ab]hept-2-yl)-5-ethynyl-6-fluoronaphthalen-2-ol], the IC50 (GP2D; Homo sapiens, GP2d, 72 h) is reported as 0.98 nM, the F [1] is reported as 18% and the AUC(0-inf) [1, 6] is reported as 1110 ng·h/mL. For the same compound, the C0 ([1]; rat, in vivo, IV, 1 mg/kg, overnight fasting, plasma, read-out: C0) was 524 ng/mL, the clearance ([1]; rat, in vivo, IV, 1 mg/kg, overnight fasting, plasma, read-out: CL) was 15 mL/min/kg and the half-life [1, 6] was 9 h. It also gave an AUC(0-inf) [1, 7] of 6170 ng·h/mL, a Cmax [1, 8] of 471 ng/mL and a half-life [1, 7] of 6.8 h. The Tmax [1, 9] was 6 h, the F ([2]; PO 30 mg/kg vs IV 1 mg/kg, male Balb/c mice) was 23% and the AUC(0-inf) ([2]; mouse, in vivo, Balb/c mice, intravenously (IV), 1 mg/kg, plasma, read-out: AUCo-∞) was 374 ng·h/mL. For the same compound, the C0 ([2]; mouse, in vivo, Balb/c mice, intravenously (IV), 1 mg/kg, plasma, read-out: C0) was 412 ng/mL, the clearance ([2]; mouse, in vivo, Balb/c mice, intravenously (IV), 1 mg/kg, plasma, read-out: CL) was 44.6 mL/min/kg and the half-life ([2]; mouse, in vivo, Balb/c mice, intravenously (IV), 1 mg/kg, plasma) was 11.5 h. For the same compound, the AUC(0-inf) ([2]; mouse, in vivo, PO, 30 mg/kg, male Balb/c mice, overnight fasting, plasma, read-out: AUC0-∞) was 2610 ng·h/mL, the Cmax ([2]; mouse, in vivo, PO, 30 mg/kg, male Balb/c mice, overnight fasting, plasma, read-out: Cmax) was 391 ng/mL and the half-life ([2]; mouse, in vivo, PO, 30 mg/kg, male Balb/c mice, overnight fasting, plasma) was 6.6 h. It also gave a Tmax ([2]; mouse, in vivo, PO, 30 mg/kg, male Balb/c mice, overnight fasting, plasma, read-out: Tmax) of 1 h.

For `CC[C@@H]1Oc2nc(-c3cc(N)cc(Cl)c3C(F)(F)F)c(F)c3nc(OCC4(CN5CCC(=CF)CC5)CC4)nc(c23)N2C[C@@H]3CC[C@@H](N3)[C@@H]12` [Example 322, 3-chloro-5-((5S,5aS,6R,9S)-5-ethyl-1-fluoro-12-((1-((4-(fluoromethylene)piperidin-1-yl)methyl)cyclopropyl)methoxy)-5a,6,7,8,9,10-hexahydro-5H-4-oxa-3,10a,11,13,14-pentaaza-6,9-methylnaphtho[1,8-ab]hept-2-yl)-4-(trifluoromethyl)aniline], the IC50 (GP2D; proliferation, about 72 h, CellTiter-Glo) was 0.61 nM, the “AUCo-∞” value [1, 10] was 219 ng·h/mL and the C0 [1, 10] was 326 ng/mL. It also gave a CL [1, 10] of 76.2 mL/min/kg, a T1/2 [1, 10] of 11.6 h and an F [1] of 10%. For the same compound, the “AUCo-∞” value [1, 11] was 694 ng·h/mL, the Cmax [1, 11] was 40 ng/mL and the T1/2 [1, 11] was 10.4 h. The Tmax [1, 11] was 6.0 h.

With `C#Cc1c(F)ccc2cc(O)cc(-c3nc4c5c(nc(OCC6(CN7CC8CC(=C(F)F)CC8C7)CC6)nc5c3F)N3C[C@H]5CC[C@H](N5)[C@H]3[C@H](C)O4)c12` (stereo partly drawn) [Example 133] the IC50 (GP2D; Homo sapiens, GP2d, 72 h) was 0.53 nM, the AUC(0-inf) [1, 7] was 6510 ng·h/mL and the Cmax [1, 8] was 588 ng/mL. For the same compound, the half-life [1, 7] was 7 h and the Tmax [1, 9] was 4 h.

Compound `C#Cc1c(F)ccc2cc(O)cc(-c3nc4c5c(nc(OCC6(CN7CCCC(=C(F)F)CC7)CC6)nc5c3F)N3C[C@H]5CC[C@H](N5)[C@H]3[C@H](CC)O4)c12` [Example 140] has an IC50 (GP2D; Homo sapiens, GP2d, 72 h) of 0.79 nM, an AUC(0-inf) [1, 7] of 2280 ng·h/mL and a Cmax [1, 8] of 118 ng/mL. For the same compound, the half-life [1, 7] was 11 h and the Tmax [1, 9] was 2 h.

For `CC(C)[N+](C)(CCOC(=O)C1c2ccccc2Oc2ccccc21)C(C)C` [Propantheline bromide, propantheline bromide, reference compound], the half-life [3] was 1.34 h, the “Remaining rate (%) 0 min” value ([3]; 0 h) was 100.00% and the “Remaining rate (%) 15 min” value ([3]; 0.25 h) was 95.25%. For the same compound, the “Remaining rate (%) 30 min” value ([3]; 0.5 h) was 95.45%, the “Remaining rate (%) 60 min” value ([3]; 1 h) was 75.66% and the “Remaining rate (%) 120 min” value ([3]; 2 h) was 36.25%. For the same compound, the half-life [4] was 0.462 h, the “Remaining rate (%) 0 min” value ([4]; 0 h) was 100.00% and the “Remaining rate (%) 15 min” value ([4]; 0.25 h) was 79.79%. The “Remaining rate (%) 30 min” value ([4]; 0.5 h) was 48.66%, the “Remaining rate (%) 60 min” value ([4]; 1 h) was 23.39% and the “Remaining rate (%) 120 min” value ([4]; 2 h) was 6.66%. The half-life [5] was 0.27 h, the “Remaining rate (%) 0 min” value ([5]; 0 h) was 100.00% and the “Remaining rate (%) 15 min” value ([5]; 0.25 h) was 26.78%. For the same compound, the “Remaining rate (%) 30 min” value ([5]; 0.5 h) was 5.05%, the “Remaining rate (%) 60 min” value ([5]; 1 h) was 0.25% and the “Remaining rate (%) 120 min” value ([5]; 2 h) was 0.05%.

`C#Cc1c(F)ccc2cc(O)cc(-c3nc4c5c(nc(OCC6(CN7CCC(=NOC)C8(CC8)C7)CC6)nc5c3F)N3C[C@H]5CC[C@H](N5)[C@H]3[C@H](C)O4)c12` [Example 342, 5-((1-((((5S,5aS,6S,9R)-2-(8-ethynyl-7-fluoro-3-hydroxynaphthalen-1-yl)-1-fluoro-5-methyl-5a,6,7,8,9,10-hexahydro-5H-4-oxa-3,10a,11,13,14-pentaaza-6,9-methylnaphtho[1,8-ab]heptene-12-yl)oxy)methyl)cyclopropyl)methyl)-5-azaspiro[2.5]octan-8-one O-methyloxime] showed an IC50 (GP2D; Homo sapiens, GP2d, 72 h) of 0.41 nM.

With `[2H]C([2H])([2H])[C@@H]1Oc2nc(-c3cc(O)cc4ccc(F)c(C#C)c34)c(F)c3nc(OC([2H])([2H])C4(C([2H])([2H])N5CCC(=CF)CC5)CC4)nc(c23)N2C[C@H]3CC[C@H](N3)[C@@H]12` [Example 298] the IC50 (GP2D; Homo sapiens, GP2d, 72 h) was 0.28 nM.

In the case of `C#Cc1c(F)ccc2cc(O)cc(-c3nc4c5c(nc(OCC6(CN7CC8CC(=C(F)F)CC8C7)CC6)nc5c3F)N3C[C@H]5CC[C@H](N5)[C@H]3[C@H](CC)O4)c12` (stereo partly drawn) [Example 141], the IC50 (GP2D; Homo sapiens, GP2d, 72 h) is reported as 0.94 nM, the AUC(0-inf) [1, 7] is reported as 17300 ng·h/mL and the Cmax [1, 8] is reported as 869 ng/mL. The half-life [1, 7] was 18.9 h and the Tmax [1, 9] was 2 h.
